The values that follow come from US20260325655A1, “DECREASING THE INTRINSICALLY DISORDERED PROTEIN ALPHA-SYNUCLEIN’S LEVELS BY TARGETING ITS STRUCTURED MRNA WITH A RIBONUCLEASE TARGETING CHIMERA” (University of Florida Research Foundation, Incorporated, priority 2023, published 2026).

Like-named read-outs stand apart in the source and are kept apart here.

Holding throughout (format): cell-based, human
The subject of assay [1] is SNCA IRE-luciferase reporter. Kind of assay: wash-out experiment using the luciferase reporter assay. Particulars: 16 h after compound removal; 2 μM. From the text: (§1) Plasmid constructs and establishment of reporter gene overexpressing cells. Construction of pIRES-Luc-EGFP-puro plasmid and pCDH-α-syn-5′-UTR-Luc-EGFP-puro plasmid used in 5′ UTR-luciferase-based selectivity assay were previously described.^4 Briefly, In-Fusion PCR cloning system (Takara Bio, Mountain View, CA, USA) was used for all plasmid constructions per the manufacturer's instructions. To ensure sequence accuracy, all plasmids generated in this study were confirmed by sequencing.
Luciferase assay. The effect of compounds on translation of SNCA IRE-containing transcript was measured by using a luciferase reporter assay. HeLa cells (~60% confluency) were transfected with plasmids (2 μg per 60 mm dish) by using JetPrime (Polyplus Transfection) according to the manufacturer's recommended procedures. Approximately 16 h after transfection, the transfection cocktail was removed, and the cells were trypsinized and seeded to 96-well plates (8,000 cells per well). After 6 h, cells were treated as described in Cell Culture. To measure the luciferase signals, the cells were then washed with 1× DPBS, and luciferase activity in each well was measured by using the ONE-Glo Luciferase Assay System (Promega) per the manufacturer's instructions. Luminescence from firefly luciferase reaction was measured using a Biomek FLx800 plate reader.
For orientation: In a reporter assay the amount or activity of a reporter protein is the signal.

The test system of assay [2] is SNCA IRE-luciferase transcript. Kind of assay: SNCA IRE-luciferase transcript abundance by RT-qPCR. Particulars: Homo sapiens, 2 μM, read-out: reduction of SNCA IRE-luciferase transcript levels. The procedure:
(§2) RNA extraction and reverse transcription-quantitative polymerase chain reaction (RT-qPCR). Total RNA was extracted from cells using a Quick-RNA MiniPrep Kit (Zymo Research) per the manufacturer's protocol including DNase treatment. For each sample, 200 ng of RNA was reverse transcribed into cDNA by using a qScript cDNA Synthesis Kit (QuantaBio) according to the manufacturer's instructions. To assess the relative mRNA levels, RT-qPCR was performed in triplicate using SYBR Green PCR mater mix (Applied Biosystems) with a Quant Studio 5 Real-Time PCR system. The relative levels of mRNA were calculated by using the ΔΔCt method as previously described.^8
as §1
(In general: Real-time PCR tracks product formation cycle by cycle.)

The next assay has as its system ferritin mRNA. Kind of assay: ferritin mRNA in SH-SY5Y cells by RT-qPCR. Here is the method: as §2
The next assay concerns TfR mRNA. The assay is described as follows: TfR mRNA in SH-SY5Y cells by RT-qPCR. The procedure:
as §2

For a further assay, the system named is SH-SY5Y cells. Kind of assay: transcriptome-wide RNA-seq in SH-SY5Y cells. To be noted: for inhibition at 2 µM: Homo sapiens, not statistically significant. Here is the method: (§3) RNA-seq analysis. Total RNA was quantified using the Qubit 2.0 Fluorometer (Invitrogen) and an Agilent 2100 Bioanalyzer RNA nano chip. Samples with RIN>9.0 were proceeded to library preparation using NEBNext Ultra II Directional RNA Kit (Cat. #E7760, NEB) following manufacture's protocol. Briefly, 200 ng of total RNA was depleted of ribosomal RNA using the NEBNext rRNA Depletion Module. The product was chemically fragmented using NEBNext Magnesium RNA Fragmentation Module (E6150S, NEB) the at 94° C. for 15 min. First-strand synthesis was performed with random primers, and second strand was synthesized with dUTP in place of dTTP. After end repair and 3′ adenylation, the cDNA was ligated with adaptors and then treated with USER enzyme (Uracil-specific excision reagent). The product was PCR amplified with Illumina-barcoded primers to generate the cDNA libraries. The final libraries were analyzed on the bioanalyzer DNA chips, pooled in equimolar ratios, and loaded onto the NextSeq 500 v2.5 flow cell and sequenced with 2×40 bp paired-end chemistry. The raw data were aligned to the human genome using STAR.^11 Read counts were extracted using featureCounts,^12 and the differential gene analysis was performed using Deseq2.^13

In assay [3] the test system is PD patient-derived neurons. The assay is described as follows: total RNA-seq in PD patient-derived dopaminergic neurons. The procedure:
as §3
Dopamine neuron induction. For dopamine neuronal induction,^15,16 the dual-SMAD inhibition method^17 was used for floor plate (FP)-based midbrain dopamine (DA) neuron induction with modifications. Prior to differentiation, Matrigel matrix (BD) was thawed at 4° C. overnight or on ice until it is dissolved. Matrigel coated 6-well plates were prepared according to manufacturer's instructions and incubated at 37° C. for at least 1 h before use. iPSCs were dissociated with Accutase (STEMCELL Technologies) and plated (3.5×10^5-4×10^5 cells per cm^2) into a new Matrigel coated plate and grown in mTeSR medium (STEMCELL Technologies) with StemBeads FGF2 (StemCultures) and ROCK inhibitor Y27632 (5 μM, Tocris). After 24 to 48 h, when the cells reached 100% confluency, the differentiation protocol was initiated by feeding the cells with DMEM containing 15% KnockOut Serum Replacement (KSR, Gibco), 2 mM L-glutamine (L-Glut) and 10 μM β-mercaptoethanol for 11 days.
Floor Plate (FP) induction protocol was followed based on timed exposure to BMP inhibitor LDN193189 (100 nM, PeproTech), ALK inhibitor SB431542 (10 μM, Tocris), recombinant mouse sonic hedgehog N-terminus SHH C25II (100 ng/ml, R&D), Smoothened agonist Purmorphamine (2 μM, PeproTech) and GSK3 inhibitor CHIR99021 (CHIR; 3 μM, PeproTech). KSR medium was gradually shifted to N2 medium (Neurobasal/N2 with B27 Plus Supplement; Gibco) starting on day 5 of differentiation as described previously.^18 On day 11, the medium was changed to Neurobasal/B27/L-Glut containing medium (NB/B27; Gibco) supplemented with CHIR (until day 13) and with BDNF (20 ng/ml; PeproTech), ascorbic acid (0.2 mM), GDNF (20 ng/ml; PeproTech), dibutyryl cAMP (0.5 mM; PeproTech), TGFβ3 (1 ng/ml; PeproTech), and γ-secretase inhibitor DAPT (10 μM; PeproTech) for 9 days. On Day 20 and Day 30 (midbrain DA neuron precursor stages), cells were dissociated using Accutase and replated at high cell density (8× 10^5 cells per cm^2) in dishes pre-coated with 15 μg/ml polyornithine/1 μg/ml laminin/2 μg/ml fibronectin in differentiation medium (NB/B27+BDNF, ascorbic acid, GDNF, dbcAMP, TGFβ3 and DAPT). […]

Where [4] appears, read: of 447 detectable IRE-containing mRNAs.
Where [5] appears, read: among 461 genes significantly downregulated in PD neurons.
The mark [6] stands for this setting: among 976 genes significantly upregulated in PD neurons.

For `O=C(CSc1nnc(-c2ccncc2)n1-c1ccc(Br)cc1)Nc1ccc2cn[nH]c2c1` [Synucleozid-2.0], the “activity after wash-out (in words)” value in assay [1] is “inactive”.

`CCOC(=O)C1=C(Nc2ccccc2)S/C(=C\c2ccc(OCCOCCOCCOCCNC(=O)CCCOc3ccc(-n4c(SCC(=O)Nc5ccc6cn[nH]c6c5)nnc4-c4ccncc4)cc3)c(O)c2)C1=O` [Syn-RiboTAC]: the inhibition at 2 µM in assay [2] was ~50%. For the same compound, the “effect on ferritin mRNA level” value in the assay with ferritin mRNA is listed as “None of the three transcripts was affected”. Further, the “effect on TfR mRNA level” value in the assay with TfR mRNA is listed as “None of the three transcripts was affected”. Also, in the assay with SH-SY5Y cells (2 μM, of 30,175 genes detected), the “number of genes downregulated” value is 34, the “number of genes upregulated” value was found to be 14 and the “percent of genes affected” value was found to be 0.16%. In the assay with SH-SY5Y cells (2 μM, of 30,175 genes detected, log 2fold change >0.58, p<0.05), the “number of genes affected” value is 48. In the assay with SH-SY5Y cells (SH-SY5Y, RNA-seq, read-out: reduction of BLVRB transcript level), the inhibition at 2 µM is ~20%. For the same compound, the inhibition at 2 µM in the assay on SH-SY5Y cells (SH-SY5Y, RNA-seq, read-out: reduction of SNCA transcript abundance by RNA-seq) is ~35%. Further, the “APP, ferritin, and TfR transcript levels in the RNA-seq data” value with SH-SY5Y cells (RNA-seq, SH-SY5Y) is on record as “unaffected”. The “number of bound transcripts whose levels were reduced (cleaved)” value in the assay with SH-SY5Y cells (of 38 Chem-CLIP-bound transcripts detected in RNA-seq, including SNCA) is “four”. For the same compound, in the assay with SH-SY5Y cells (setting [4]), the “number of IRE-containing mRNAs affected” value is on record as 19, the “number of IRE-containing mRNAs downregulated” value came out at 11 and the “number of IRE-containing mRNAs upregulated” value was determined as 8. In addition, in assay [3] (PD patient-derived neurons, only gene besides SNCA), the “hexokinase 2 (HK2) expression” value is listed as “significantly decreased”. For the same compound, in assay [3] (setting [5]), the “number of PD-downregulated genes improved” value is recorded as 223 and the “percent of PD-downregulated genes improved” value was found to be 48%. Besides, in assay [3] (setting [6]), the “number of PD-upregulated genes improved (decreased)” value was found to be 488 and the “percent of PD-upregulated genes improved (decreased)” value was found to be 50%.
